What is called IC50 is the concentration at which inhibition is half-maximal. Read a low IC50 as inhibition by little substance.

The values below come from ChEMBL document CHEMBL5050844 (2019).

SMILES strings stand for the structures.

The nature of assay [1]: Induction of anti-CD3/CD28 antibodies-stimulated human T cell activation at 1 uM assessed fold increase in CD25 expression measured by ELISA assay. The format is functional, T cell line. For orientation: In an ELISA, binding on a coated surface is turned into a signal by an enzyme label.
Assay [2] in a line: Induction of anti-CD3/CD28 antibodies-stimulated human T cell activation at 0.3 uM assessed fold increase in CD25 expression measured by ELISA assay. The class given is functional, T cell line.
Assay [3] is described as follows: Induction of anti-CD3 antibodies-stimulated human T cell activation at 1 uM assessed fold increase in IL-2 secretion measured by ELISA assay. Note: reference of the scale not given here. The class given is functional, T cell line.
Assay [4] concerns the target E3 ubiquitin-protein ligase CBL-B (Homo sapiens, UniProt Q13191). The assay is described as follows: Inhibition of N-terminal Avi-tagged human CBL-B (36 to 427 residues) incubated with 60 nM Src kinase for 1.5 hrs followed by incubation with fluorescently labeled UbcH5B-Ub for 1 hr and measured by TR-FRET assay. The class given is single protein. For orientation: TR-FRET usually uses a lanthanide donor and a delayed reading to cut background.

The nature of assay [5]: Induction of anti-CD3/CD28 antibodies-stimulated human T cell activation at 0.3 uM assessed fold increase in IL-2 secretion measured by ELISA assay. The class given is functional, T cell line.
Assay [6] is described as follows: Induction of anti-CD3 antibodies-stimulated human T cell activation at 1 uM assessed fold increase in CD25 expression measured by ELISA assay. Note: reference of the scale not given here. The class given is functional, T cell line.
Assay [7] can be described thus: Induction of anti-CD3/CD28 antibodies-stimulated human T cell activation at 1 uM assessed fold increase in IL-2 secretion measured by ELISA assay. The class given is functional, T cell line.

Chain of E3 ubiquitin-protein ligase CBL-B (Q13191 whole entry, the tested form may be a part): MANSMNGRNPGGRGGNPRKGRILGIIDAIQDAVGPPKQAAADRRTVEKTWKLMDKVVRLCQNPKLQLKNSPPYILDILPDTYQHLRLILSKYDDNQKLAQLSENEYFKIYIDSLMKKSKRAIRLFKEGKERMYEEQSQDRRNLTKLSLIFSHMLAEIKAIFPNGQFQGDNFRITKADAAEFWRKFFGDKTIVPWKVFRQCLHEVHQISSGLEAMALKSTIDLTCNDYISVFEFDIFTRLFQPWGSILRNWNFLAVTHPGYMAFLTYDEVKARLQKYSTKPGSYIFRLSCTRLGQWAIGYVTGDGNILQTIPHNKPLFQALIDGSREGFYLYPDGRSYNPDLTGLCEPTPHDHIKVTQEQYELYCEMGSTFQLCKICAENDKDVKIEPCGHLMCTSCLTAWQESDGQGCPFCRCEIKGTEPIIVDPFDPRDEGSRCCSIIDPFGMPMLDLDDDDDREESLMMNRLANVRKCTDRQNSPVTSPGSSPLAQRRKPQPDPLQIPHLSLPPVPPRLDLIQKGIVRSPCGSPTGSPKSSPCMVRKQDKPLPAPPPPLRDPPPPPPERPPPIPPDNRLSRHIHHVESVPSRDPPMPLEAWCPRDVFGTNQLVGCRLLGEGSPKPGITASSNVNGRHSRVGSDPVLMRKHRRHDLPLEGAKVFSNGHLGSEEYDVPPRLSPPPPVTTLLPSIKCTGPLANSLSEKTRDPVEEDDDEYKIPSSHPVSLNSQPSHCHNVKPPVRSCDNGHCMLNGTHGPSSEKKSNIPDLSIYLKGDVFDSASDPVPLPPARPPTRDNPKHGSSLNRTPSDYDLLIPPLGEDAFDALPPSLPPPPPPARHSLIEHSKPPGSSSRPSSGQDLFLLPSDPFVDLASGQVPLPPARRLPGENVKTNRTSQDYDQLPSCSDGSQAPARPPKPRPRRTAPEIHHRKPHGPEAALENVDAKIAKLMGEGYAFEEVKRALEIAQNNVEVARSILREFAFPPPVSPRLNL

In the case of `Cc1nc2c(o1)CCN(Cc1cc3c(c(C(F)(F)F)c1)CN(c1cccc(C4(Cc5nncn5C)COC4)c1)C3=O)C2`, the “fold change (FC)” value in assay [1] was 1.31; in assay [2], 1.01; in assay [3], “>=0.201”; in assay [5], 5; in assay [6], “>=1.001”; in assay [7], “>=7.5”. Also, the IC50 in assay [4] was below 0.1 µM.
Regarding `Cn1cnnc1CC1(c2cccc(N3Cc4c(cc(CN5CC6CC5CO6)cc4C(F)(F)F)C3=O)c2)COC1` (centres undefined), the “fold change (FC)” value in assay [1] turned out to be 1.01; in assay [2], 1.01; in assay [3] it was 0.051; in assay [5], 2.51; in assay [6] it was 0.801; in assay [7], 5. In addition, the IC50 in assay [4] is below 0.1 µM.
As to `Cn1cnnc1CC1(c2cccc(N3Cc4c(cc(CN5Cc6cccnc6C5)cc4C(F)(F)F)C3=O)c2)COC1`, the “fold change (FC)” value in assay [1] is on record as 1.31; in assay [2] it was 1.31; in assay [3], “>=0.201”; in assay [5] it was 2.51; in assay [6], “>=1.001”; in assay [7], “>=7.5”. In assay [4], this compound registered an IC50 below 0.1 µM.
With `COc1cc(C(=O)Nc2cccc(C3(Cc4nncn4C)COC3)c2)nc(C2CC2)n1`, the “fold change (FC)” value in assay [1] was 1.31; in assay [2] it was 1.01; in assay [3] it was 0.151; in assay [5], 5; in assay [6], “>=1.001”; in assay [7], “>=7.5”. Further, in assay [4], the IC50 was below 0.1 µM.
As for `Cn1cnnc1CC1(c2cccc(N3Cc4c(cc(CN5C6CCCC5CC6)cc4C(F)(F)F)C3=O)c2)COC1`, the “fold change (FC)” value was “>=1.76” in assay [1]; “>=1.76” in assay [2]; “>=0.201” in assay [3]; “>=7.5” in assay [5]; “>=1.001” in assay [6]; “>=7.5” in assay [7]. The IC50 in assay [4] is below 0.1 µM.
`Cn1cnnc1CC1(c2cccc(N3Cc4c(cc(CN5CCC(C(F)F)CC5)cc4C(F)(F)F)C3=O)c2)COC1`: the “fold change (FC)” value is on record as 1.31 in assay [1]; 1.31 in assay [2]; 0.151 in assay [3]; 5 in assay [5]; “>=1.001” in assay [6]; “>=7.5” in assay [7]. Further, the concentration for half-maximal inhibition (IC50) in assay [4] was below 0.1 µM.
As to `Cn1cnnc1[C@@H](F)C1(c2cccc(N3Cc4c(cc(CN5CCC6(CC6)C5)cc4C(F)(F)F)C3=O)c2)COC1`, the “fold change (FC)” value is 1.31 in assay [1]; 1.01 in assay [2]; 0.101 in assay [3]; 5 in assay [5]; “>=1.001” in assay [6]; “>=7.5” in assay [7]. Besides, in assay [4], the IC50 was below 0.1 µM.
Consider `Cn1cnnc1CC1(c2cccc(N3Cc4c(cc(CN5CCC6(CC6)C5)cc4C(F)(F)F)C3=O)c2)CCC1`, for which the “fold change (FC)” value in assay [1] is reported as 1.31; in assay [2] it was 1.31; in assay [3], “>=0.201”; in assay [5], “>=7.5”; in assay [6], “>=1.001”; in assay [7] it was “>=7.5”. The same compound came in with an IC50 in assay [4] below 0.1 µM.
Turning to `Cn1cnnc1CC1(c2cccc(NC(=O)c3cc(CN4CCCCC4)nc(C4CC4)n3)c2)COC1`, the “fold change (FC)” value in assay [1] is on record as “>=1.76”; in assay [2], “>=1.76”; in assay [3], “>=0.201”; in assay [5], “>=7.5”; in assay [6], “>=1.001”; in assay [7], “>=7.5”. This compound had a half-inhibitory concentration (IC50) in assay [4] below 0.1 µM.
Consider `Cn1cnnc1[C@H](F)C1(c2cccc(N3Cc4c(cc(CN5C6CCCC5CC6)cc4C(F)(F)F)C3=O)c2)COC1` (stereo in doubt; 671b), for which the “fold change (FC)” value in assay [1] (1 µM) is recorded as “>=1.76”; in assay [2] (0.3 µM), “>=1.76”; in assay [3], “>=0.201”; in assay [5] it was “>=7.5”; in assay [6] it was “>=1.001”; in assay [7] it was “>=7.5”. In assay [4], this compound displayed a 50% inhibitory concentration (IC50) below 0.1 µM.
As to `Cn1cnnc1C(F)(F)C1(c2cccc(N3Cc4c(cc(CN5CC[C@H](F)C5)cc4C(F)(F)F)C3=O)c2)CC1`, the “fold change (FC)” value was 1.31 in assay [1]; 1.01 in assay [2]; “>=0.201” in assay [3]; 5 in assay [5]; “>=1.001” in assay [6]; “>=7.5” in assay [7]. This compound returned an IC50 in assay [4] below 0.1 µM.
Consider `Cc1cc(C(=O)Nc2cccc([C@@]3(Cc4nncn4C)CCOC3)c2)nc(C2CC2)n1`, for which the “fold change (FC)” value in assay [1] was 1.01; in assay [2] it was 1.01; in assay [3], 0.101; in assay [5], 2.51; in assay [6] it was 0.801; in assay [7], 2.51. The same compound came in with an IC50 in assay [4] below 0.1 µM.
Turning to `Cn1cnnc1CC1(c2cccc(N3Cc4c(cc(N5CC6(C5)CC(F)(F)C6)cc4C(F)(F)F)C3=O)c2)COC1`, the “fold change (FC)” value is given as 1.31 in assay [1]; 1.01 in assay [2]; 0.101 in assay [3]; 5 in assay [5]; “>=1.001” in assay [6]; “>=7.5” in assay [7]. Further, the half-maximal inhibitory concentration (IC50) in assay [4] was below 0.1 µM.
For `Cn1cnnc1CC1(c2cccc(N3Cc4c(cc(CN5CCC(C)(C#N)CC5)cc4C(F)(F)F)C3=O)c2)COC1`, the “fold change (FC)” value in assay [1] is recorded as 1.31; in assay [2], 1.31; in assay [3], 0.151; in assay [5], “>=7.5”; in assay [6], “>=1.001”; in assay [7] it was “>=7.5”. For the same compound, the 50% inhibitory concentration (IC50) in assay [4] was below 0.1 µM.
Regarding `Cn1cnnc1CC1(c2cccc(N3Cc4c(cc(C(F)(F)CO)cc4C(F)(F)F)C3=O)c2)COC1`, the “fold change (FC)” value was 1.01 in assay [1]; 1.01 in assay [2]; 0.101 in assay [3]; 1.01 in assay [5]; 0.801 in assay [6]; 1.01 in assay [7]. The concentration for half-maximal inhibition (IC50) in assay [4] was below 0.1 µM.
For `CC1CCN(Cc2cc3c(c(C(F)(F)F)c2)CN(c2cccc(C4(Cc5nncn5C)COC4)c2)C3=O)CC1(F)F` (centres undefined), the “fold change (FC)” value is 1.31 in assay [1]; 1.31 in assay [2]; “>=0.201” in assay [3]; “>=7.5” in assay [5]; “>=1.001” in assay [6]; “>=7.5” in assay [7]. This compound also had an IC50 in assay [4] below 0.1 µM.
With `Cn1cnnc1CC1(c2cccc(N3Cc4c(cc(N5CCNC6(CC6)C5)cc4C(F)(F)F)C3=O)c2)COC1`, the “fold change (FC)” value in assay [1] is 1.31; in assay [2], 1.31; in assay [3], 0.101; in assay [5] it was “>=7.5”; in assay [6] it was “>=1.001”; in assay [7], “>=7.5”. Further, the IC50 in assay [4] was below 0.1 µM.
Turning to `Cc1cc(C(=O)Nc2cccc(C3(Cc4nncn4C)CCC3)c2)nc(C2CC2)n1`, the “fold change (FC)” value in assay [1] is on record as 1.31; in assay [2] it was 1.31; in assay [3], 0.051; in assay [5], “>=7.5”; in assay [6] it was “>=1.001”; in assay [7], “>=7.5”. Further, the IC50 in assay [4] is below 0.1 µM.
Regarding `CC(c1cc2c(c(C(F)(F)F)c1)CN(c1cccc(C3(Cc4nncn4C)COC3)c1)C2=O)N1CC(S(C)(=O)=O)C1` (centres undefined), the “fold change (FC)” value is listed as 1.01 in assay [1]; 1.01 in assay [2]; 0.101 in assay [3]; 1.01 in assay [5]; 0.601 in assay [6]; 1.01 in assay [7]. The compound also registered a 50% inhibitory concentration (IC50) in assay [4] below 0.1 µM.
With `Cn1cnnc1CC1(c2cccc(N3Cc4c(cc(CN5CC[C@H]6C[C@H]65)cc4C(F)(F)F)C3=O)c2)COC1`, the “fold change (FC)” value was 1.51 in assay [1]; 1.51 in assay [2]; “>=0.201” in assay [3]; “>=7.5” in assay [5]; “>=1.001” in assay [6]; “>=7.5” in assay [7]. The same compound showed a half-maximal inhibitory concentration (IC50) in assay [4] below 0.1 µM.
In the case of `C[C@H](c1cc2c(c(C(F)(F)F)c1)CN(c1cccc(C3(Cc4nncn4C)COC3)c1)C2=O)N1CC2CC2C1` (some centres undefined), the “fold change (FC)” value in assay [1] was 1.31; in assay [2], 1.31; in assay [3], “>=0.201”; in assay [5] it was “>=7.5”; in assay [6], “>=1.001”; in assay [7] it was “>=7.5”. Moreover, the half-maximal inhibitory concentration (IC50) in assay [4] was below 0.1 µM.
As for `C[C@@H]1CN(C)CCN1c1cc2c(c(C(F)(F)F)c1)CN(c1cccc(C3(Cc4nncn4C)COC3)c1)C2=O`, the “fold change (FC)” value in assay [1] is on record as 1.31; in assay [2], 1.01; in assay [3], 0.151; in assay [5], 2.51; in assay [6] it was “>=1.001”; in assay [7] it was “>=7.5”. In assay [4], this compound returned an IC50 below 0.1 µM.
